ChEMBL document CHEMBL4043249, “Discovery of potent antiviral (HSV-1) quinazolinones and initial structure-activity relationship studies” (Bioorg Med Chem Lett, 2017)
Calls of active or inactive are those of the source. The rule behind the calls is not given here.

Experiments:
Human alphaherpesvirus 1 [1] = test: Anti-viral activity against Herpes simplex virus-1 harboring EGFP infected in iPSC-derived neurons assessed as reduction in ICP0 expression at 10 to 50 uM treated 2 hrs post infection measured after 72 hrs by Alexa fluor 488 staining based flow cytometric analysis; type: functional
[2] = Cytotoxicity against human induced pluripotent stem cell-derived neurons assessed as effect on cell viability after 24 hrs by live/dead fixable aqua dead cell staining based assay; settings: induced pluripotent stem cell-derived neuron
Human alphaherpesvirus 1 [3] = test: Anti-viral activity against Herpes simplex virus-1 harboring EGFP infected in iPSC-derived neurons assessed as reduction in ICP0 expression treated 2 hrs post infection measured after 72 hrs by Alexa fluor 488 staining based flow cytometric analysis; type: functional
[4] = Cytotoxicity against human induced pluripotent stem cell-derived neurons assessed as morphological changes after 48 to 72 hrs by live/dead fixable aqua dead cell staining based assay; settings: induced pluripotent stem cell-derived neuron
Human alphaherpesvirus 1 [5] = test: Anti-viral activity against Herpes simplex virus-1 harboring EGFP infected in iPSC-derived neurons assessed as reduction in ICP0 expression at 10 uM treated 2 hrs post infection measured after 72 hrs by Alexa fluor 488 staining based flow cytometric analysis; type: functional
[6] = Induction of heterochromatinization in Induced pluripotent stem cell-derived neuron (unknown origin) infected with HSV-1 assessed as increase in H3K27 trimethylation at ICP4 gene by chromatin immunoprecipitation based RT-PCR analysis
Human alphaherpesvirus 1 [7] = test: Anti-viral activity against Herpes simplex virus-1 harboring EGFP infected in iPSC-derived neurons assessed as reduction in ICP0 expression at 50 uM treated 2 hrs post infection measured after 72 hrs by Alexa fluor 488 staining based flow cytometric analysis; type: functional
Vero = test: Cytotoxicity against African green monkey Vero cells assessed as effect on cell viability at 10 to 1000000 nM; type: cell-based; settings: chlorocebus sabaeus, 1000 µM
Human alphaherpesvirus 1 [8] = test: Anti-viral activity against Herpes simplex virus-1 harboring EGFP infected in iPSC-derived neurons assessed as viable cells at 50 mM treated 2 hrs post infection measured after 72 hrs by Alexa fluor 488 staining based flow cytometric analysis (reference value: 17.8%); type: functional
Human alphaherpesvirus 1 [9] = test: Anti-viral activity against Herpes simplex virus-1 harboring EGFP infected in iPSC-derived neurons assessed as early apoptotic cells at 50 mM treated 2 hrs post infection measured after 72 hrs by Alexa fluor 488 staining based flow cytometric analysis (reference value: 13.2%); type: functional
Neuron = test: Cytotoxicity against neurons (unknown origin) assessed as effect on cell viability at 10 to 1000000 nM; type: cell-based; settings: 1000 µM
NSC = test: Cytotoxicity against NSC (unknown origin) assessed as effect on cell viability at 10 to 1000000 nM; type: cell-based; settings: 1000 µM
Human alphaherpesvirus 1 [10] = test: Anti-viral activity against Herpes simplex virus-1 harboring EGFP infected in iPSC-derived neurons assessed as late apoptotic cells at 50 mM treated 2 hrs post infection measured after 72 hrs by Alexa fluor 488 staining based flow cytometric analysis (reference value: 65.7%); type: functional
Human alphaherpesvirus 1 [11] = test: Anti-viral activity against Herpes simplex virus-1 harboring EGFP infected in iPSC-derived neurons assessed as late apoptotic cells at 10 mM treated 2 hrs post infection measured after 72 hrs by Alexa fluor 488 staining based flow cytometric analysis (reference value: 65.7%); type: functional
Human alphaherpesvirus 1 [12] = test: Anti-viral activity against Herpes simplex virus-1 harboring EGFP infected in iPSC-derived neurons assessed as necrotic cells at 10 mM treated 2 hrs post infection measured after 72 hrs by Alexa fluor 488 staining based flow cytometric analysis (reference value: 3.33%); type: functional
Human alphaherpesvirus 1 [13] = test: Anti-viral activity against Herpes simplex virus-1 harboring EGFP infected in iPSC-derived neurons assessed as necrotic cells at 50 mM treated 2 hrs post infection measured after 72 hrs by Alexa fluor 488 staining based flow cytometric analysis (reference value: 3.33%); type: functional
Human alphaherpesvirus 1 [14] = test: Anti-viral activity against Herpes simplex virus-1 harboring EGFP infected in iPSC-derived neurons assessed as early apoptotic cells at 10 mM treated 2 hrs post infection measured after 72 hrs by Alexa fluor 488 staining based flow cytometric analysis (reference value: 13.2%); type: functional
Human alphaherpesvirus 1 [15] = test: Anti-viral activity against Herpes simplex virus-1 harboring EGFP infected in iPSC-derived neurons assessed as viable cells at 10 mM treated 2 hrs post infection measured after 72 hrs by Alexa fluor 488 staining based flow cytometric analysis (reference value: 17.8%); type: functional

O=c1c2ccccc2nc(-c2ccc(OCc3cccc(Br)c3)cc2)n1-c1ccc(Br)cc1
Activity (Human alphaherpesvirus 1 [1]): Active

O=c1c2ccccc2nc(-c2ccc(OCc3ccccc3)cc2)n1-c1ccc(Br)cc1
Activity [2]: Toxic | Activity (Human alphaherpesvirus 1 [3]): Active | Activity [4]: Toxic | Activity (Human alphaherpesvirus 1 [5]): Active | Activity [6]: Non-Toxic | Activity (Human alphaherpesvirus 1 [7]): Active

O=c1c2ccccc2nc(-c2ccc(Br)cc2)n1-c1ccc(Br)cc1
Activity (Human alphaherpesvirus 1 [3]): Active

COc1ccc(-n2c(-c3ccc(Oc4ccccc4)cc3)nc3ccccc3c2=O)cc1
Activity (Human alphaherpesvirus 1 [1]): inactive

COc1ccc(-n2c(-c3ccc(OCc4ccc(Br)cc4)cc3)nc3ccccc3c2=O)cc1
Activity (Vero): Toxic | Activity (Human alphaherpesvirus 1 [8]): 88.9% | Activity (Human alphaherpesvirus 1 [9]): 3.36% | Activity (Neuron): Toxic | Activity (NSC): Toxic | Activity (Human alphaherpesvirus 1 [10]): 5.03% | Activity (Human alphaherpesvirus 1 [11]): 4.64% | Activity (Human alphaherpesvirus 1 [12]): 0.6% | Activity (Human alphaherpesvirus 1 [13]): 2.91% | Activity (Human alphaherpesvirus 1 [14]): 3.18% | Activity (Human alphaherpesvirus 1 [1]): Active | Activity (Human alphaherpesvirus 1 [15]): 91.6%

O=c1[nH]c(-c2ccc(OCc3ccccc3)cc2)nc2ccccc12
Activity (Human alphaherpesvirus 1 [3]): inactive

COc1ccc(-c2nc3ccccc3c(=O)n2-c2ccc(Br)cc2)cc1
Activity (Human alphaherpesvirus 1 [3]): Active

COc1ccc(-n2c(-c3ccc(OCc4cccc(Br)c4)cc3)nc3ccccc3c2=O)cc1
Activity (Vero): Toxic | Activity (Human alphaherpesvirus 1 [8]): 82% | Activity (Human alphaherpesvirus 1 [9]): 3.76% | Activity (Neuron): Toxic | Activity (NSC): Toxic | Activity (Human alphaherpesvirus 1 [10]): 9.96% | Activity (Human alphaherpesvirus 1 [11]): 6.1% | Activity (Human alphaherpesvirus 1 [12]): 0.59% | Activity (Human alphaherpesvirus 1 [13]): 4.31% | Activity (Human alphaherpesvirus 1 [14]): 3.24% | Activity (Human alphaherpesvirus 1 [1]): Active | Activity (Human alphaherpesvirus 1 [15]): 90.1%

COc1ccc(Oc2ccc(-c3nc4ccccc4c(=O)n3-c3ccc(OC)cc3)cc2)cc1
Activity (Human alphaherpesvirus 1 [1]): inactive

Nc1nc2c(ncn2COCCO)c(=O)[nH]1 [ACYCLOVIR]
Activity (Human alphaherpesvirus 1 [8]): 92.6% | Activity (Human alphaherpesvirus 1 [9]): 6.22% | Activity (Human alphaherpesvirus 1 [10]): 0.44% | Activity (Human alphaherpesvirus 1 [11]): 1.36% | Activity (Human alphaherpesvirus 1 [12]): 1.13% | Activity (Human alphaherpesvirus 1 [13]): 0.76% | Activity (Human alphaherpesvirus 1 [14]): 7.92% | Activity (Human alphaherpesvirus 1 [15]): 89.6%

COc1ccc(-n2c(-c3ccc(OCc4ccccc4)cc3)nc3ccccc3c2=O)cc1
Activity [2]: Toxic | Activity (Human alphaherpesvirus 1 [3]): Active | Activity [4]: Toxic | Activity (Human alphaherpesvirus 1 [7]): Active

COc1ccc(-n2c(-c3ccc(Oc4ccc(Cl)cc4)cc3)nc3ccccc3c2=O)cc1
Activity (Human alphaherpesvirus 1 [1]): inactive

CCCCCCn1c(-c2ccc(OCc3ccccc3)cc2)nc2ccccc2c1=O
Activity (Human alphaherpesvirus 1 [3]): inactive

O=c1c2ccccc2nc(-c2ccc(OCc3ccc(Br)cc3)cc2)n1-c1ccc(Br)cc1
Activity (Human alphaherpesvirus 1 [1]): Active

COc1ccc(-n2c(-c3ccc(Oc4ccc(OC(F)(F)F)cc4)cc3)nc3ccccc3c2=O)cc1
Activity (Human alphaherpesvirus 1 [1]): inactive

COc1ccc(-n2c(-c3ccc(Nc4ccccc4)cc3)nc3ccccc3c2=O)cc1
Activity (Human alphaherpesvirus 1 [1]): inactive
